# Results taken from patent publication US20100256090A1, “Alginic Acid with Low Molecular Weight, Its Salts, Uses, Preparative Methods, Pharmaceutical Compositions and Foods” (priority 2007, published 2010).
# What was measured:
# hypertension subjects [1] = assay: Clinical Example 1: blood pressure of hypertension subjects after oral granule or enteric capsule; format: in vivo, human
# From the text: This clinical example explains the effects of the low molecular weight alginate salts of the present invention and the effects of the low molecular weight alginate salts of the comparative example in improving hypertension.
# Male and female hypertension subjects without other disease were selected, 360 for each sex, aged from 38 to 62 with an average age of 48, whose systolic blood pressure (SBP)(s) were from 155 to 165 mmHg and diastolic blood pressure (DBP)(s) were from 100 to 125 mmHg, said SBP(s) and DBP(s) were measured in resting state. The subjects were randomly grouped, 30 subjects for each group, and orally took granule of low molecular weight potassium alginate or enteric capsule of alginic acid with low molecular weight 1 to 3 times per day with a daily dose of 50 to 200 mg/Kg according to Table 2, and blood pressures before and 24 hours after administration were measured. The granule of low molecular weight potassium alginate was prepared in the following way: potassium alginate was prepared using the alginic acid with low molecular weight according to examples 1 to 10 or comparative example 1, and then the potassium alginate was prepared into granule according to the method of example 11 or comparative example 2. The enteric capsule of alginic acid with low molecular weight was prepared according to the method of example 11 or comparative example 2. Criterion of therapeutical effect made by China Hypertension League was referred to, that is, the systolic blood pressure reduces by more than 15 mmHg and the diastolic blood pressure reduces by more than 10 mmHg 24 hours after the administration.
# [2] = tested on: Male Wister rats feed with high lipid diet; assay: Clinical Example 6: prevention of blood lipid increase in rats on high lipid diet; format: in vivo; conditions: conclusion from Table 7, one month
# Method: This clinical example explains the effects of the low molecular weight alginate salt of the present invention and the effects of the low molecular weight alginate salt of the comparative example in preventing increase of blood lipid when they are added into high lipid diet.
# Male Wister rats weighted from 180 to 200 g were randomly divided into 13 groups, 8 for each group, wherein one group was designated as a blank group and feed with normal diet, one group was designated as a control group and feed with a high lipid diet comprising 1 wt % of cholesterol, 0.5 wt % of cholate, 10 wt % of lard oil and 10 wt % of yolk, and the remaining groups were feed with the high lipid diet and were given through stomach the potassium alginate aqueous solution according to the present invention for three times every day such that the daily intake of potassium alginate for each rat reached […]. After one month of feeding, lipoprotein in serum, total cholesterol (TC), triglyeride (TG), high density lipoprotein cholesterol (HDL-C) and low density lipoprotein cholesterol as well as very low density lipoprotein cholesterol [(LDL+VLDL)-C] were measured using enzymatic methods commonly used in the clinic (for example, CHOD-PAP to measure TC and GPO-PAP to measure TG), and the results are shown in Table 7.
# hypertension subjects [3] = assay: Clinical Example 7: blood pressure of hypertension subjects taking milk powder with potassium alginate; format: in vivo, human; conditions: conclusion from Table 8, one month use of milk powder
# Method: This clinical example explains the effects of the low molecular weight alginate salt of the present invention and the effects of the low molecular weight alginate salt of the comparative example in reducing hypertension when they are added into milk powder.
# Fresh milk containing 8 wt % of solid content was added with potassium alginate until the content of the potassium alginate reached 25 wt % in term of the solid content weight, the milk was then spray dried at 150° C. to obtain a milk powder.
# Male and female hypertension subjects without other disease were selected, 48 for each sex, aged from 40 to 65 with an average age of 54, whose SBP(s) were from 145 to 155 mmHg and DBP(s) were from 120 to 125 mmHg, said SBP(s) and DBP(s) were measured in resting state. The subjects were randomly grouped, 8 subjects for each group, and took the milk power after infusing it, wherein the daily dose of potassium alginate reached 10 to 30 mg/Kg and the milk power was taken continuously for one month.
Compound,"effective rate (hypertension subjects [1]; effective: SBP reduces by more than 15 mmHg and DBP by more than 10 mmHg 24 hours after administration, oral)","average SBP before administration (hypertension subjects [1]; first number of SBP/DBP, baseline, resting state, hypertension subjects, 30 per group)","average SBP after administration 24 h (hypertension subjects [1]; first number of SBP/DBP, oral, 1 to 3 times per day, daily dose 50 to 200 mg/Kg per Table 2, 24 hours after administration)","average DBP before administration (hypertension subjects [1]; second number of SBP/DBP, baseline, resting state, hypertension subjects, 30 per group)","average DBP after administration 24 h (hypertension subjects [1]; second number of SBP/DBP, oral, 1 to 3 times per day, daily dose 50 to 200 mg/Kg per Table 2, 24 hours after administration)",blood lipid increase preventing effect (in words) [2],blood pressure reducing effect (in words) (hypertension subjects [3])
"NS(=O)(=O)c1cc2c(cc1Cl)NCNS2(=O)=O [Positive Control, Hydrochlorothiazide]",70.1%,162 mmHg,121 mmHg,118 mmHg,95 mmHg,–,–
alginic acid with low molecular weight [Comparative Example 1],–,–,–,–,–,inferior,inferior
